Measured values: patent US11846630B2, “Coordinately-ordered single cells with individual identities for high-throughput assay” (Northeastern University, priority 2019, dated 2023)

Assays:
OT-1 cells = test: Microwell ELISA immunoassay of interferon-γ secreted by peptide-stimulated OT-1 cells; type: cell-based; settings: OVA peptide concentration 0.5, 1, 2, 4, 8 μg/mL; FIG. 12, panel C
Description: Surface of the microwells can be chemically modified with capture agents, such as antibodies, to detect cytokines secreted by T cells during the T cell-cancer cells interaction. […] The cytokine detection is based on ELISA sandwich structure and quantified based on the fluorescence intensity of Avidin Texas red. Due to the existence of BSA on the top layer, the majority of antibodies were only absorbed on the inner surface of the microwells (bottom and inside wall of microwell), which enhanced capturing signals and reduced background. The location of the capture antibody after BSA saturation was indicated using Rhodamine-BSA and FITC-Antibody and shown in FIG. 11, panel B, in which BSA only covered the top layer of microwell and the green fluorescent capture antibody was mainly present inside the microwells after BSA saturation, enhancing the signals from the microwells. The fluorescence images of interferon-γ at two concentrations are shown in FIG. 11, panel C, and the standard curve of fluorescence versus interferon-γ concentration is presented in FIG. 11, panel D. According to the standard curve, imaged-based ELISA using the microwells detected a wide range of the cytokine concentrations from 0.1 ng/mL to 5 ng/mL, and the concentrations determined based on fluorescence intensity ranged from 0.8×10^5 to 2.7×10^5. […]

HeLa cells = test: ROS assay (CellROX Orange) on coordinated single cell pattern; settings: 1 μM doxorubicin for 6 hours

| Compound | intensity of the interferon-γ fluorescence (OT-1 cells) | ROS orange signal intensity after subsequent X-ray exposure (HeLa cells; then X-ray 10.8 Gy, compared with doxorubicin alone) | ROS orange signal (HeLa cells; identical cell analysis, FIG. 3) |
| --- | --- | --- | --- |
| SINFEKL [OVA peptide, OVA peptide (SINFEKL) used to stimulate OT-1 cells to secrete cytokines] | increased | – | – |
| COc1cccc2c1C(=O)c1c(O)c3c(c(O)c1C2=O)C[C@@](O)(C(=O)CO)C[C@@H]3O[C@H]1C[C@H](N)[C@H](O)[C@H](C)O1 [doxorubicin] | – | much higher level of damage than that of doxorubicin alone | increases |
